For this experiment, the system named is Erysiphe [syn. Blumeria] graminis forma specialis. tritici. The experiment in a line: activity against mildew of wheat, 5 day protective application. The class given is in vivo. The settings on record: evaluated 7 days after inoculation, Abbot's formula. The method, then:
1% by weight of the emulsifier Uniperol® EL (wetting agent having emulsifying and dispersant action based on ethoxylated alkylphenols) was added to this solution, and the mixture was diluted with water to the desired concentration.
Use example—activity against mildew of wheat caused by Erysiphe [syn. Blumeria] graminis forma specialis. tritici, 5 day protective application
Theor emulsion had been prepared as described above. […] The test plants were then placed in a greenhouse at temperatures between 20 and 24° C. and at 60 to 90% relative atmospheric humidity. After 7 days, the extent of mildew development was determined visually in % infection of the total leaf area
The visually determined percentages of infected leaf areas were converted into efficacies in % of the untreated control:
The efficacy (E) is calculated as follows using Abbot's formula: E=(1-α/β)·100 • α corresponds to the fungal infection of the treated plants in % and • β corresponds to the fungal infection of the untreated (control) plants in %
An efficacy of 0 means that the infection level of the treated plants corresponds to that of the untreated control plants; an efficacy of 100 means that the treated plants were not infected.

Setting [1] is: 12.5 ppm active compound in the spray liquor.

On to `CC1CCN(c2c(-c3c(F)cc(F)cc3F)c(Cl)nc3ncnn23)CC1` [I, 5-chloro-7-(4-methylpiperidin-1-yl)-6-(2,4,6-trifluorophenyl)-[1,2,4]triazolo[1,5-a]pyrimidine], for which the “Efficacy in % of the untreated control” value by setting is: under setting [1], 9%; (50 ppm active compound in the spray liquor) 35%.
For `CCCOc1nc2ccc(I)cc2c(=O)n1CCC` [II.1-1, proquinazid], the “Efficacy in % of the untreated control” value under setting [1] was found to be 67% and the “Efficacy in % of the untreated control” value (25 ppm active compound in the spray liquor) stood at 80%.

These data come from patent US20070197557A1, “Fungicidal mixtures” (Basf Aktiengesellschaft, priority 2004, published 2007).
